# Measurements as given in patent US20150225404A1, “PYRIDINE DERIVATIVE AND MEDICINE” (NIPPON SHINYAKU CO., LTD., priority 2012, published 2015).
# Where a name gives a salt, the structure may show the parent alone.
# Target: T1, human mGluR5 (Homo sapiens, UniProt P41594)
# T1 construct: expressed in transfected cells
# Assay: Experiment for receptor function of mGluR5 (Ca2+-dependent fluorescence, FLIPR, CHO-K1 cells stably expressing human mGluR5)
# Format: cell-based
# Settings: L-glutamic acid 10 μM, Fluo-4 fluorescence
# Experimental: Stable expression cells in which the human mGluR5 gene had been introduced into a Chinese hamster ovary cell (CHO-K1) were used for evaluation. The cells were suspended in a growth medium (MEM-α (D8042, available from Sigma) containing 10% inactivated FBS (Cat. No. 171012, available from CCB) and 2 mM glutamax (Cat. No. 35050, available from GIBCO)) and seeded on a black clear-bottom 96-well plate at 100,000 cells per well. One day after seeding, the medium was replaced by a medium (Hanks' balanced salt solution (HBSS buffer solution) (20 mM HEPES, 2.5 mM probencide (165-15472, available from Wako Pure Chemical Industries, Ltd.), and 10×HBSS (14065-056, available from Gibco) diluted 10 times, pH 7.4)) containing a calcium-sensitive dye Fluo-4 AM at a final concentration of […] (F312, available from Dojindo Laboratories) and Pluronic F-127 at a final concentration of 0.0145% (P-2443, available from Sigma), followed by incubation at 37° C. for one hour, thereby loading Fluo-4 AM into the cells.
# Subsequently, the cells were washed twice with an HBSS buffer solution, to which was subsequently added the same buffer solution. Twenty minutes thereafter, the plate was transferred into a fluorescence screening system (FLIPR TETRA, available from Molecular Devices, LLC) and measured for a Ca^2+-dependent fluorescence change in the cells.
# First of all, a fluorescence baseline was measured, and thereafter, fluorescence measurement was performed for 2 minutes while adding a test substance, an excessive amount of 6-methyl-2-(phenylethynyl)pyridine (hereinafter referred to as “MPEP”) (final concentration: 10 μM), or the medium. Thereafter, fluorescence measurement was carried out for one minute while adding L-glutamic acid (final concentration: 10 μM).
# While taking a fluorescence intensity caused by L-glutamic acid as 100% and a fluorescence intensity caused by L-glutamic acid in the presence of MPEP as 0%, respectively, function inhibitory activity against human mGluR5 was evaluated from the fluorescence intensity caused by L-glutamic acid in the presence of the test substance at each concentration, and an IC50 value was estimated according to a logistic equation (SAS System).
# T1 sequence (P41594 21-1212): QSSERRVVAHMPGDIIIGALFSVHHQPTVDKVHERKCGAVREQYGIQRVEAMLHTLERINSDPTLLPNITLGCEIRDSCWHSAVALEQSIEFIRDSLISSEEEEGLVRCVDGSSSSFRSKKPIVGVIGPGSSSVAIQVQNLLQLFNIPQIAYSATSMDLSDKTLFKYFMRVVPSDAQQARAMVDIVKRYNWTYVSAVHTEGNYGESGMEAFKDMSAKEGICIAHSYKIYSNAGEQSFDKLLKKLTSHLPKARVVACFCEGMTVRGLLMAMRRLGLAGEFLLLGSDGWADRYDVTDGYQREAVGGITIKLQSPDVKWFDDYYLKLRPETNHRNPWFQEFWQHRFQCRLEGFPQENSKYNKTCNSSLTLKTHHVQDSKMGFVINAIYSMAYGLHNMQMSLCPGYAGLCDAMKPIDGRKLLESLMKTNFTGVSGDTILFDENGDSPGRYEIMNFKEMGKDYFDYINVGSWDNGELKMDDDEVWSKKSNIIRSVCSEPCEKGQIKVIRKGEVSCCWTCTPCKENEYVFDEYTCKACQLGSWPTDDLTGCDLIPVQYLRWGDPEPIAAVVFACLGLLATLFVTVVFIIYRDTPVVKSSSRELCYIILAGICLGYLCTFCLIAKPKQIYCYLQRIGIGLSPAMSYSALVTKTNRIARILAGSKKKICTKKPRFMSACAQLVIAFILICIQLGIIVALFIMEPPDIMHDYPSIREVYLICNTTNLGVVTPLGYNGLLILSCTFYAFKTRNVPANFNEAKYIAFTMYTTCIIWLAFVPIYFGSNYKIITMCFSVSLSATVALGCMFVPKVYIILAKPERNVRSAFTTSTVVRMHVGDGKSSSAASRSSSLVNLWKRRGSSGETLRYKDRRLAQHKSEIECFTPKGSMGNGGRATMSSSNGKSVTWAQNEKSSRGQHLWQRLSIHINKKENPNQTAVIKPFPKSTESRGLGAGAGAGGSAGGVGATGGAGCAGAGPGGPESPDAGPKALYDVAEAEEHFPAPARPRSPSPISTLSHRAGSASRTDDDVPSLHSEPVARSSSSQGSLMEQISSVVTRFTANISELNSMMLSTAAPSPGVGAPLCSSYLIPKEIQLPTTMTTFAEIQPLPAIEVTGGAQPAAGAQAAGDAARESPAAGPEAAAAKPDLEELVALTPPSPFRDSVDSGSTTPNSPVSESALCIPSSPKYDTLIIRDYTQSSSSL
row,Compound,IC50 [nM]
1,"OCc1cncc(-c2cc(OCc3ccc(F)cn3)nc3c2CCC3)n1 [Example 269, (6-{2-[(5-Fluoropyridin-2-yl)methoxy]-6,7-dihydro-5H-cyclopenta[b]pyridin-4-yl}pyrazin-2-yl)methanol]",67
2,"COc1cncc(-c2cc(OCc3ccccn3)nc3c2CCCC3)n1 [Example 205, 4-(6-Methoxypyrazin-2-yl)-2-(pyridin-2-ylmethoxy)-5,6,7,8-tetrahydroquinoline hydrochloride]",93
3,"Fc1cccc(COc2cc(-c3cncnc3)c3c(n2)CCC3)n1 [Example 24, 2-[(6-Fluoropyridin-2-yl)methoxy]-4-(pyrimidin-5-yl)-6,7-dihydro-5H-cyclopenta[b]pyridine]",36
4,"Cc1cccc(COc2cc(-c3cccnc3)c3c(n2)CCCC3)n1 [Example 83, 2-[(6-Methylpyridin-2-yl)methoxy]-4-(pyridin-3-yl)-5,6,7,8-tetrahydroquinoline]",16.2
5,"CNc1cncc(-c2cc(OCc3ccccn3)nc3c2CCCC3)c1 [Example 125, N-Methyl-5-[2-(pyridin-2-ylmethoxy)-5,6,7,8-tetrahydroquinolin-4-yl]pyridin-3-amine]",45.6
6,"c1ccc(COc2cc(-c3cccnc3)c3c(n2)CCC3)nc1 [Example 1, 4-(Pyridin-3-yl)-2-(pyridin-2-ylmethoxy)-6,7-dihydro-5H-cyclopenta[b]pyridine dihydrochloride]",144
7,"Fc1ccnc(-c2cc(OCc3ccccn3)nc3c2CCCC3)c1 [Example 223, 4-(4-Fluoropyridin-2-yl)-2-(pyridin-2-ylmethoxy)-5,6,7,8-tetrahydroquinoline]",47.3
8,"Cc1ncc(-c2cc(OCc3ccc(F)cn3)nc3c2CCCC3)cn1 [Example 186, 2-[(5-Fluoropyridin-2-yl)methoxy]-4-(2-methylpyrimidin-5-yl)-5,6,7,8-tetrahydroquinoline]",26
9,"Fc1cncc(-c2cc(OCc3ccccn3)nc3c2CCCC3)c1 [Example 107, 4-(5-Fluoropyridin-3-yl)-2-(pyridin-2-ylmethoxy)-5,6,7,8-tetrahydroquinoline hydrochloride]",81.2
10,"Cn1nccc1-c1cc(OCc2ccc(C#N)cn2)nc2c1CCC2 [Example 274, 6-({[4-(1-Methyl-1H-pyrazol-5-yl)-6,7-dihydro-5H-cyclopenta[b]pyridin-2-yl]oxy}methyl)pyridine-3-carbo nitrile]",61
11,"N#Cc1cccc(COc2cc(-c3cncnc3)c3c(n2)CCCC3)n1 [Example 149, 6-({[4-(Pyrimidin-5-yl)-5,6,7,8-tetrahydroquinolin-2-yl]oxy}methyl)pyridine-2-carbonitrile]",19.3
12,"Fc1ccc(-c2cc(OCc3ccccn3)nc3c2CCCC3)cn1 [Example 101, 4-(6-Fluoropyridin-3-yl)-2-(pyridin-2-ylmethoxy)-5,6,7,8-tetrahydroquinoline dihydrochloride]",23.4
13,"Cc1cc(COc2cc(-c3cnc(C)nc3)c3c(n2)CCCC3)ccn1 [Example 286, 2-[(2-Methylpyridin-4-yl)methoxy]-4-(2-methylpyrimidin-5-yl)-5,6,7,8-tetrahydroquinoline]",95
14,"c1cncc(-c2cc(OCc3ncco3)nc3c2CCCC3)c1 [Example 91, 2-(1,3-Oxazol-2-ylmethoxy)-4-(pyridin-3-yl)-5,6,7,8-tetrahydroquinoline]",16.9
15,"N#Cc1ccc(COc2cc(-c3cncnc3)c3c(n2)CCCC3)nc1 [Example 150, 6-({[4-(Pyrimidin-5-yl)-5,6,7,8-tetrahydroquinolin-2-yl]oxy}methyl)pyridine-3-carbonitrile]",63
16,"Cc1ccc(COc2cc(-c3cccnc3)c3c(n2)CCCC3)nc1 [Example 84, 2-[(5-Methylpyridin-2-yl)methoxy]-4-(pyridin-3-yl)-5,6,7,8-tetrahydroquinoline]",112
17,"OCc1cncc(-c2cc(OCc3ccccn3)nc3c2CCCC3)n1 [Example 204, {6-[2-(Pyridin-2-ylmethoxy)-5,6,7,8-tetrahydroquinolin-4-yl]pyrazin-2-yl}methanol]",230
18,"Cc1cc(COc2cc(-c3cnc(C)nc3)c3c(n2)CCC3)ccn1 [Example 262, 2-[(2-Methylpyridin-4-yl)methoxy]-4-(2-methylpyrimidin-5-yl)-6,7-dihydro-5H-cyclopenta[b]pyridine]",82

row,Compound,IC50 [nM]
1,"c1ccc(COc2cc(-c3cnccn3)c3c(n2)CCC3)nc1 [Example 53, 4-(Pyrazin-2-yl)-2-(pyridin-2-ylmethoxy)-6,7-dihydro-5H-cyclopenta[b]pyridine hydrochloride]",11.4
2,"Nc1cncc(-c2cc(OCc3ccccn3)nc3c2CCCC3)c1 [Example 124, 5-[2-(Pyridin-2-ylmethoxy)-5,6,7,8-tetrahydroquinolin-4-yl]pyridin-3-amine]",24.8
3,"c1ccc(COc2cc(-c3cnccn3)c3c(n2)CCCC3)nc1 [Example 194, 4-(Pyrazin-2-yl)-2-(pyridin-2-ylmethoxy)-5,6,7,8-tetrahydroquinoline hydrochloride]",11.4
4,"Fc1cccc(COc2cc(-c3cccnc3)c3c(n2)CCCC3)n1 [Example 86, 2-[(6-Fluoropyridin-2-yl)methoxy]-4-(pyridin-3-yl)-5,6,7,8-tetrahydroquinoline]",15.1
5,"Cc1ncc(-c2cc(OCc3cccc(F)c3)nc3c2CCC3)cn1 [Example 266, 2-[(3-Fluorobenzyl)oxy]-4-(2-methylpyrimidin-5-yl)-6,7-dihydro-5H-cyclopenta[b]pyridine]",71
6,"N#Cc1ccc(-c2cc(OCc3ccccn3)nc3c2CCCC3)cn1 [Example 104, 5-[2-(Pyridin-2-ylmethoxy)-5,6,7,8-tetrahydroquinolin-4-yl]pyridine-2-carbonitrile hydrochloride]",51.7
7,"N#Cc1ccnc(COc2cc(-c3cncnc3)c3c(n2)CCCC3)c1 [Example 151, 2-({[4-(Pyrimidin-5-yl)-5,6,7,8-tetrahydroquinolin-2-yl]oxy}methyl)pyridine-4-carbonitrile]",439
8,"COC(=O)c1cncc(-c2cc(OCc3ccccn3)nc3c2CCCC3)c1 [Example 116, Methyl 5-[2-(pyridin-2-ylmethoxy)-5,6,7,8-tetrahydroquinolin-4-yl]pyridine-3-carboxylate]",133
9,"N#Cc1ncc(-c2cc(OCc3ncccc3F)nc3c2CCC3)cn1 [Example 50, 5-{2-[(3-Fluoropyridin-2-yl)methoxy]-6,7-dihydro-5H-cyclopenta[b]pyridin-4-yl}pyrimidine-2-carbonitrile]",176
10,"Cc1ccc(-c2cc(OCc3ccccn3)nc3c2CCC3)cc1F [Example 64, 4-(3-Fluoro-4-methylphenyl)-2-(pyridin-2-ylmethoxy)-6,7-dihydro-5H-cyclopenta[b]pyridine]",297
11,"N#Cc1cncc(-c2cc(OCc3ccccn3)nc3c2CCCC3)c1 [Example 113, 5-[2-(Pyridin-2-ylmethoxy)-5,6,7,8-tetrahydroquinolin-4-yl]pyridine-3-carbonitrile hydrochloride]",68.8
12,"N#Cc1ccc(COc2cc(-c3cnc(N)nc3)c3c(n2)CCC3)cc1 [Example 264, 4-({[4-(2-Aminopyrimidin-5-yl)-6,7-dihydro-5H-cyclopenta[b]pyridin-2-yl]oxy}methyl)benzonitrile]",126
13,"N#Cc1cccc(COc2cc(-c3cncc(CO)n3)c3c(n2)CCC3)c1 [Example 270, 3-[({4-[6-(Hydroxymethyl)pyrazin-2-yl]-6,7-dihydro-5H-cyclopenta[b]pyridin-2-yl}oxy)methyl]benzonitrile]",186
14,"c1ccc(COc2cc(-c3cnccn3)c3c(n2)CCCCC3)nc1 [Example 234, 4-(Pyrazin-2-yl)-2-(pyridin-2-ylmethoxy)-6,7,8,9-tetrahydro-5H-cyclohepta[b]pyridine hydrochloride]",41.4
15,"N#Cc1cncc(-c2cc(OCc3ccccn3)nc3c2CCC3)n1 [Example 54, 6-[2-(Pyridin-2-ylmethoxy)-6,7-dihydro-5H-cyclopenta[b]pyridin-4-yl]pyrazine-2-carbonitrile hydrochloride]",20
16,"N#Cc1ccc(COc2cc(-c3cncc(CO)c3)c3c(n2)CCC3)cc1 [Example 247, 4-[({4-[5-(Hydroxymethyl)pyridin-3-yl]-6,7-dihydro-5H-cyclopenta[b]pyridin-2-yl}oxy)methyl]benzonitrile]",52
17,"C=C1CCc2c(-c3cncnc3)cc(OCc3ccccn3)nc21 [Example 237, 7-Methylidene-2-(pyridin-2-ylmethoxy)-4-(pyrimidin-5-yl)-6,7-dihydro-5H-cyclopenta[b]pyridine]",34.5
18,"Clc1cncc(-c2cc(OCc3ccccn3)nc3c2CCCC3)n1 [Example 195, 4-(6-Chloropyrazin-2-yl)-2-(pyridin-2-ylmethoxy)-5,6,7,8-tetrahydroquinoline]",24.3
